Assay results from a compilation of properties of binary mixtures (doi:10.1021/je401124t).

Experiment: xn = mol fraction of the nth substance listed
Settings: 101 kPa

COP(=O)([O-])OC.Cn1cc[n+](C)c1 + CC(C)O
viscosity [mPa·s]
Settings	x2 = 0	x2 = 0.0999	x2 = 0.2032	x2 = 0.301	x2 = 0.402	x2 = 0.5002	x2 = 0.6	x2 = 0.7009	x2 = 0.7997	x2 = 0.9013
293.15 K	–	–	254	173.1	–	67	38.35	21.3	11.44	5.77
298.15 K	291	253	–	129.9	75.3	–	31.53	–	9.87	5
303.15 K	210	184.2	136.2	99.8	61.1	–	26.2	15.37	8.59	4.361
308.15 K	155.6	138.2	105	78.4	49.7	35.62	22.05	–	7.54	–
313.15 K	–	–	–	–	40.99	29.78	18.74	11.54	6.64	3.359
318.15 K	92.8	82.8	–	51.5	33.95	–	16.13	–	5.89	2.969
323.15 K	74.2	66.4	54	42.88	28.66	–	14.03	8.94	5.25	–

COP(=O)([O-])OC.Cn1cc[n+](C)c1 + CCCO
viscosity [mPa·s]
Settings	x2 = 0	x2 = 0.098	x2 = 0.1993	x2 = 0.3018	x2 = 0.4	x2 = 0.5002	x2 = 0.5996	x2 = 0.6995	x2 = 0.799	x2 = 0.8998
293.15 K	416	296	211	–	85.2	50.8	29.52	17.53	9.79	4.441
298.15 K	–	215	154.1	93	66.9	41.59	25.38	15.17	8.63	3.929
303.15 K	210	159	–	74.1	53.6	–	–	13.16	7.61	3.492
308.15 K	155.6	121.1	–	59.5	43.67	28.52	18.35	11.51	6.76	3.118
313.15 K	119.2	93.9	71.2	48.5	36.1	24.02	–	10.13	6.04	2.795
318.15 K	92.8	–	57.8	39.92	–	–	13.79	8.97	5.42	2.516
323.15 K	74.2	60.9	47.8	–	25.67	17.68	–	8	–	2.273

COP(=O)([O-])OC.Cn1cc[n+](C)c1 + CCO
viscosity [mPa·s]
Settings	x2 = 0	x2 = 0.0999	x2 = 0.2028	x2 = 0.3009	x2 = 0.4074	x2 = 0.5028	x2 = 0.6	x2 = 0.6992	x2 = 0.7999	x2 = 0.9
293.15 K	416	339	246	134.3	77.7	–	–	13.76	–	–
298.15 K	291	238	182.5	98.7	–	30.76	–	11.97	5.6	2.824
303.15 K	210	–	138.5	78.5	48.7	25.78	18.08	10.5	–	2.567
308.15 K	155.6	130.7	106.8	62.9	39.62	–	15.59	–	4.509	2.341
313.15 K	119.2	100.8	84	51	32.73	18.94	13.59	8.27	4.077	2.143
318.15 K	–	79.1	67	41.98	27.44	16.42	11.88	7.41	–	1.97
323.15 K	74.2	–	54.4	35.06	23.3	14.35	10.51	6.68	3.378	–

COP(=O)([O-])OC.Cn1cc[n+](C)c1 + CO
viscosity [mPa·s]
Settings	x2 = 0	x2 = 0.1054	x2 = 0.2009	x2 = 0.2977	x2 = 0.3984	x2 = 0.5028	x2 = 0.6018	x2 = 0.7027	x2 = 0.8002	x2 = 0.8998
293.15 K	416	278	174.8	111.5	68	36.25	–	10.21	4.9	–
298.15 K	–	201.1	121.9	–	–	29.9	17.07	9.02	4.419	1.776
303.15 K	210	149.7	–	67.9	43.95	–	14.7	8.01	4.006	1.642
308.15 K	155.6	114.3	–	54.4	36.27	–	12.81	7.16	3.65	1.523
313.15 K	119.2	89.4	60.5	44.4	30.38	18.06	11.25	6.44	3.336	1.416
318.15 K	92.8	–	49.2	36.86	25.8	15.62	9.96	–	3.061	1.322
323.15 K	74.2	58.3	40.66	–	22.16	–	8.88	5.3	2.82	1.243

CC(C)O + COP(=O)([O-])OC.Cn1cc[n+](C)c1
x1 = 1
Settings	viscosity [mPa·s]
293.15 K	2.439
298.15 K	2.134
303.15 K	1.845
308.15 K	1.603
313.15 K	1.4
318.15 K	1.228
323.15 K	1.083

CCCO + COP(=O)([O-])OC.Cn1cc[n+](C)c1
x1 = 1
Settings	viscosity [mPa·s]
293.15 K	2.188
298.15 K	1.974
303.15 K	1.761
308.15 K	1.575
313.15 K	1.416
318.15 K	1.273
323.15 K	1.15

CCO + COP(=O)([O-])OC.Cn1cc[n+](C)c1
x1 = 1
Settings	viscosity [mPa·s]
293.15 K	1.192
298.15 K	1.085
303.15 K	0.99
308.15 K	0.906
313.15 K	0.831
318.15 K	0.764
323.15 K	0.704

CO + COP(=O)([O-])OC.Cn1cc[n+](C)c1
x1 = 1
Settings	viscosity [mPa·s]
293.15 K	0.586
298.15 K	0.552
308.15 K	0.491
313.15 K	0.465
323.15 K	0.418
